Source: patent publication US12661410B2, “Compounds for targeted degradation of RET” (C4 Therapeutics, Inc., priority 2020, dated 2026)
Residue numbers refer to the chain shown, from its start. Where two headings read alike, the source gives them in different places.

How the values were obtained:
RET(KD: 658-1114 G810R) = biological target: T1, RET(KD: 658-1114 G810R) (Homo sapiens, UniProt P07949, G810R); test: HiBiT-Degradation, RET G810R degradation assay (Nano-Glo HiBiT Lytic), 293T.165 cells; assay type: cell-based; conditions: for Emax / DC50: 6.0 hours
T1 construct: 658-1114; expressed in transfected cells; host or cells: 293T.165 (293T cells, generated in-house)
T1 sequence (P07949 658-1114 G810R): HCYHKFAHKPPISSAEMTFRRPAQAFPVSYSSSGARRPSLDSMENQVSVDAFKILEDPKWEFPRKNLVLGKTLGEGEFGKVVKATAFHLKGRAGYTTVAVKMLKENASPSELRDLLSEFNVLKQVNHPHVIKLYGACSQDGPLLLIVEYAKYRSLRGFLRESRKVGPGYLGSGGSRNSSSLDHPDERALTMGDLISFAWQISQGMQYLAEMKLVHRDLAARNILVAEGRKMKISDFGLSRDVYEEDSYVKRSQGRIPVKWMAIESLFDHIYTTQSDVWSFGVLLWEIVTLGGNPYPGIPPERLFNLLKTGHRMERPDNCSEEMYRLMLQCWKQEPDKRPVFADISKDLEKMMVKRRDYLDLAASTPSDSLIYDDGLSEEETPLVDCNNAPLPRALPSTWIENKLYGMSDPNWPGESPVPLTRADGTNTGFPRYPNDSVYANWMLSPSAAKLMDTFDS
In short: (§1)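 Cells were plated and dosed with an 11-point half-log series (highest 10 μM) in duplicate. After 6 hours they were lysed with HiBiT lytic detection reagent and luminescence measured. DC50 and percent remaining protein (Emax) came from the dose-response curves.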

RET (658-1114) = biological target: T2, RET (658-1114) (Homo sapiens, UniProt P07949); test: HiBiT-Degradation, RET wild-type degradation assay (Nano-Glo HiBiT Lytic), 293T.144 cells; assay type: cell-based; conditions: for DC50 / Emax: 6.0 hours
T2 construct: 658-1114; expressed in transfected cells; host or cells: 293T.144 (293T cells, generated in-house)
T2 sequence (P07949 658-1114): T1 sequence (P07949 658-1114 G810R) with R153G
In short: as §1

[1] = % remaining protein, read-out: 293T.165 RET(KD: 658-1114 G810R) 6.0 hours (Emax)
[2] = half-maximal degradation concentration, read-out: 293T.165 RET(KD: 658-1114 G810R) 6.0 hours (DC50)
[3] = RET G810R, read-out: HiBiT-Degradation 293T.165 RET(KD: 658-1114 G810R) 6.0 hours (DC50)
[4] = RET G810R, read-out: HiBiT-Degradation 293T.165 RET(KD: 658-1114 G810R) 6.0 hours (Emax)
[5] = RET wild-type, read-out: HiBiT-Degradation 293T.144 RET (658-1114) 6.0 hours (DC50)
[6] = RET wild-type, read-out: HiBiT-Degradation 293T.144 RET (658-1114) 6.0 hours (Emax)
[7] = HiBiT-Degradation, read-out: 293T.165 RET(KD: 658-1114 G810R) 6.0 hours (DC50)
[8] = HiBiT-Degradation, read-out: 293T.144 RET (658-1114) 6.0 hours (DC50)
[9] = HiBiT-Degradation, read-out: 293T.144 RET (658-1114) 6.0 hours (Emax)

| Structure (SMILES) | Emax (RET(KD: 658-1114 G810R); [1]) [%] | DC50 (RET(KD: 658-1114 G810R); [2]) [nM] | HiBiT-Degradation 293T.165 RET(KD: 658-1114 G810R) 6.0 hours (IP) [nM] (RET(KD: 658-1114 G810R); RET G810R) | DC50 (RET(KD: 658-1114 G810R); [3]) [nM] | Emax (RET(KD: 658-1114 G810R); [4]) [%] | HiBiT-Degradation 293T.144 RET (658-1114) 6.0 hours (IP) [nM] (RET (658-1114); RET wild-type) | DC50 (RET (658-1114); [5]) [nM] | Emax (RET (658-1114); [6]) [%] | 293T.165 RET(KD: 658-1114 G810R) 6.0 hours (IP) [nM] (RET(KD: 658-1114 G810R)) | 293T.144 RET (658-1114) 6.0 hours (IP) [nM] (RET (658-1114)) | Emax (RET (658-1114); % remaining protein, read-out: 293T.144 RET (658-1114) 6.0 hours (Emax)) [%] | DC50 (RET (658-1114); half-maximal degradation concentration, read-out: 293T.144 RET (658-1114) 6.0 hours (DC50)) [nM] | 293T.165 RET(KD: 658-1114 G810R) 6.0 hours (Emax) (RET(KD: 658-1114 G810R); HiBiT-Degradation) | 293T.165 RET(KD: 658-1114 G810R) 6.0 hours (IP) [nM] (RET(KD: 658-1114 G810R); HiBiT-Degradation) | DC50 (RET(KD: 658-1114 G810R); [7]) [nM] | 293T.144 RET (658-1114) 6.0 hours (IP) [nM] (RET (658-1114); HiBiT-Degradation) | DC50 (RET (658-1114); [8]) [nM] | Emax (RET (658-1114); [9]) [%] |
| --- | --- | --- | --- | --- | --- | --- | --- | --- | --- | --- | --- | --- | --- | --- | --- | --- | --- | --- |
| N#Cc1cnn2cc(-c3ccc(N4CCN(C(=O)CN5CCC(c6ccc(NC7CCC(=O)NC7=O)cc6)CC5)CC4)cc3)cc(-c3ccc(N4CCN(C(=O)Cc5ccc(F)cn5)CC4)nc3)c12 (centres unmarked) [Compound 74, 6-[4-[4-[2-[4-[4-[(2,6-dioxo-3-piperidyl)amino]phenyl]-1-piperidyl]acetyl]piperazin-1-yl]phenyl]-4-[6-[4-[2-(5-fluoro-2-pyridyl)acetyl]piperazin-1-yl]-3-pyridyl]pyrazolo[1,5-a]pyridine-3-carbonitrile] | < 30 | < 50 | ++++ (< 50 nM = ++++) | < 50 | < 30 | ++++ (< 50 nM = ++++) | < 50 | < 30 |  |  |  |  |  |  |  |  |  |  |
| N#Cc1cnn2cc(-c3cnn([C@H]4CC[C@H](N5CCN(c6ccc(N[C@@H]7CCC(=O)NC7=O)cc6F)CC5)CC4)c3)nc(-c3ccc(N4CC5COCC(C4)N5Cc4ccccn4)nc3)c12 (single isomer, unassigned) [Compound 156] | < 30 | < 50 |  |  |  |  |  |  | ++++ (<50 nM = ++++) | ++++ (<50 nM = ++++) | < 30 | < 50 |  |  |  |  |  |  |
| CC(=O)N1CCN(c2ccc(-c3nc(-c4ccc(N5CCN(C(=O)CN6CCC(c7ccc(NC8CCC(=O)NC8=O)cc7)CC6)CC5)cc4)cn4ncc(C#N)c34)cn2)CC1 (centres unmarked) [Compound 27, 4-(6-(4-acetylpiperazin-1-yl)pyridin-3-yl)-6-(4-(4-(2-(4-(4-((2,6-dioxopiperidin-3-yl)amino)phenyl)piperidin-1-yl)acetyl)piperazin-1-yl)phenyl)pyrazolo[1,5-a]pyrazine-3-carbonitrile] | < 30 | < 50 |  |  |  |  |  |  |  |  |  |  | ++++ (< 30% = ++++) | ++++ (< 50 nM = ++++) | < 50 | ++++ (< 50 nM = ++++) | < 50 | < 30 |
| CC(C)NC(=O)C1(C)CCN(c2ccc(-c3cc(-c4ccc(N5CCN(C(=O)CN6CCC(c7ccc(NC8CCC(=O)NC8=O)cc7)CC6)CC5)cc4)cn4ncc(C#N)c34)cn2)CC1 (centres unmarked) [Compound 35, 1-(5-(3-Cyano-6-(4-(4-(2-(4-(4-((2,6-dioxopiperidin-3-yl)amino)phenyl)piperidin-1-yl)acetyl)piperazin-1-yl)phenyl)pyrazolo[1,5-a]pyridin-4-yl)pyridin-2-yl)-N-isopropyl-4-methylpiperidine-4-carboxamide] | < 30 | < 50 |  |  |  |  |  |  |  |  |  |  | ++++ (< 30% = ++++) | ++++ (< 50 nM = ++++) | < 50 | ++++ (< 50 nM = ++++) | < 50 | < 30 |
| CCC1(C(=O)NC(C)C)CCN(c2ccc(-c3nc(-c4cnn(C5CCN(C(=O)CC6(O)CCN(c7ccc(N[C@@H]8CCC(=O)NC8=O)cc7F)CC6)CC5)c4)cn4ncc(C#N)c34)cn2)CC1 (single isomer, unassigned) [Compound 79] | < 30 | < 50 | ++++ (< 50 nM = ++++) | < 50 | < 30 | ++++ (< 50 nM = ++++) | < 50 | < 30 |  |  |  |  |  |  |  |  |  |  |
